Measured values: EPA's ToxValDB 9.5 (doi:10.2903/j.efsa.2018.5151)
In brackets after ≈: the same amount, converted by molar mass.

Tests used:
[1] = test system: Rattus norvegicus; details: acute; oral; mortality
[2] = test system: Apis mellifera; details: acute, mortality
[3] = test system: Bibionidae; details: chronic/long-term; duration: 28 days
[4] = test system: Anas platyrhynchos; details: acute; oral; unspecified; mortality
[5] = test system: Oncorhynchus mykiss
[6] = test system: Daphnia magna; details: chronic/long-term; duration: 21 days
[7] = test system: Folsomia candida; details: chronic/long-term; duration: 28 days; reproduction
[8] = test system: Colinus virginianus; details: reproduction developmental
[9] = test system: Aphidius rhopalosiphi; assay: LR50; higher = less toxic

## COC(=O)Nc1cccc(OC(=O)Nc2cccc(C)c2)c1 [Phenmedipham]
[1]
  LD50: > 5000 mg/kg-day
[2]; dermal
  LD50: > 100 µg/piece
[2]; oral, unspecified
  LD50: > 105 µg/piece
[3]
  NOEC: ≥ 6.86 mg/L
[4]
  LD50: > 2500 mg/kg-day
[5]; acute, duration: 96 hours, mortality
  LC50: 1.84 µg/mL (≈ 6.13 µM)
[5]; chronic/long-term, duration: 92 days, growth
  NOEC: 0.041 mg/L
[6]
  NOEC: 0.005 mg/L
[7]
  NOEC: 500 mg/kg
[8]
  NOAEL: 121 mg/kg-day
[9]; acute, mortality
  LR50: > 294 g/ha
[9]; chronic/long-term, duration: 14 days, no effects
  LR50: > 960 g/ha
